Data as given in US20110053984A1, “NOVEL 4-BENZHYDRYLOXY-TETRAALKYL-PIPERIDINE DERIVATIVES AND THEIR USE AS MONOAMINE NEUROTRANSMITTER RE-UPTAKE INHIBITORS” (NeuroSearch A/S, priority 2008, published 2011).
Where a name gives a salt, the structure may show the parent alone.

Assays:
[1] = target: T1, dopamine (DA) reuptake in synaptosomes (Rattus norvegicus, UniProt P23977); assay: Inhibition of DA reuptake in synaptosomes; assay type: biochemical; conditions: 3H-DA, read-out: DA-uptake IC50
T1 construct: in synaptosomes as described in WO 97/16451; from tissue
T1 sequence (P23977 whole entry): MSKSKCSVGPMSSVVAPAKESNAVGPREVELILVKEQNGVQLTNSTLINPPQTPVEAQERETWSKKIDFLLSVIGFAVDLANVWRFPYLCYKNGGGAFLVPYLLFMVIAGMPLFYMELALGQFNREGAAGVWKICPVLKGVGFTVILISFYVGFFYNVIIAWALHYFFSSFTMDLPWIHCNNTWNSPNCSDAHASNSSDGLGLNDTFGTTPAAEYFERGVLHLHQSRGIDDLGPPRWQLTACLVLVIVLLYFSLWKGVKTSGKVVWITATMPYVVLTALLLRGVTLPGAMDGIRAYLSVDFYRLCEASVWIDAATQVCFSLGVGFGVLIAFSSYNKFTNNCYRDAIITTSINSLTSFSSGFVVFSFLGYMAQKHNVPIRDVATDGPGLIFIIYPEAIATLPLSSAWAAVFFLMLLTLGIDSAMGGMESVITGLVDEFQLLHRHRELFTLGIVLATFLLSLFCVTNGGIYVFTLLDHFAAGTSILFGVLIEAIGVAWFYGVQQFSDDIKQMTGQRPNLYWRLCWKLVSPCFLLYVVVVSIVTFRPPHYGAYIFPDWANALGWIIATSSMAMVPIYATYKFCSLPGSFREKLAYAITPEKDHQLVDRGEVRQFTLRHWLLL
Method: (§1) Compounds were tested for their ability to inhibit the reuptake of the monoamine neurotransmitters dopamine (DA) noradrenaline (NA) and serotonine (5-HT) in synaptosomes as described in WO 97/16451 (NeuroSearch A/S).
(§2) The test values are given as IC50 (the concentration (μM) of the test substance which inhibits the specific binding of ^3H-DA, ^3H-NA, or ^3H-5-HT by 50%).

[2] = target: T2, noradrenaline (NA) reuptake in synaptosomes (Rattus norvegicus, UniProt Q63380); assay: Inhibition of NA reuptake in synaptosomes; assay type: biochemical; conditions: 3H-NA, read-out: NA-uptake IC50
T2 construct: in synaptosomes as described in WO 97/16451; from tissue
T2 sequence (Q63380 1-617): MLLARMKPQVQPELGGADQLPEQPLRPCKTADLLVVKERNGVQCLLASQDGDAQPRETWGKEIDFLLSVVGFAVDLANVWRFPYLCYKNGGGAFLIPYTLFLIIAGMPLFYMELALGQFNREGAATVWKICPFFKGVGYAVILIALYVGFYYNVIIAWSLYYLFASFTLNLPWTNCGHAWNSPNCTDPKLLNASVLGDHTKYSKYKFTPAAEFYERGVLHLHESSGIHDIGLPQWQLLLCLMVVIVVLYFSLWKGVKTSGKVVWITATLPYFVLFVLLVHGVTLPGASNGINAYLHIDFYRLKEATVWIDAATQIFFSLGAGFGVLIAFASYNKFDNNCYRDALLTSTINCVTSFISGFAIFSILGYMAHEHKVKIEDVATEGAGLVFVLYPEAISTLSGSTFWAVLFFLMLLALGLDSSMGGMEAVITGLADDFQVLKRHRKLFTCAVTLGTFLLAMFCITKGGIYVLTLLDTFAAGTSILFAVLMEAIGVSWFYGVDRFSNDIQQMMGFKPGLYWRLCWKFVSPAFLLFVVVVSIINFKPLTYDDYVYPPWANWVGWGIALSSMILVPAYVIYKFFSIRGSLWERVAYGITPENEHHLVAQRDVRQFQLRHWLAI
Method: as §1, §2

[3] = target: T3, serotonine (5-HT) reuptake in synaptosomes (Rattus norvegicus, UniProt P31652); assay: Inhibition of 5-HT reuptake in synaptosomes; assay type: biochemical; conditions: 3H-5-HT, read-out: 5-HT-uptake IC50
T3 construct: in synaptosomes as described in WO 97/16451; from tissue
T3 sequence (P31652 whole entry): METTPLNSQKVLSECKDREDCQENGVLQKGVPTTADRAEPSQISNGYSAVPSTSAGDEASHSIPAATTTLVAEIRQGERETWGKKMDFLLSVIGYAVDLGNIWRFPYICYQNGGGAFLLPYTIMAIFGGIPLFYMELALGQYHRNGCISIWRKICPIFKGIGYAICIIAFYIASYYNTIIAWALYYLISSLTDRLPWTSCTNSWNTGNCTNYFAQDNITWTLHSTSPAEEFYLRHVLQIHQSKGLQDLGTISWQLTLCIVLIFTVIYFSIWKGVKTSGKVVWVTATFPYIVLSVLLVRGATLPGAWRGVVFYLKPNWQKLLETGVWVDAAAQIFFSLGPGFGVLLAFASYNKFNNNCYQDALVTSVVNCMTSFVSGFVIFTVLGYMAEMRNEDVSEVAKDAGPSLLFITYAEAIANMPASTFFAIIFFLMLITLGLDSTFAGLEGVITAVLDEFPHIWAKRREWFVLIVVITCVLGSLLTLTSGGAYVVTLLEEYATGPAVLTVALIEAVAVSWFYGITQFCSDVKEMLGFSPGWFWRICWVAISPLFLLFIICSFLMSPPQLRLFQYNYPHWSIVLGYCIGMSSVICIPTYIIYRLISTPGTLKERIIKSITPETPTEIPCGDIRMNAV
Method: as §1, §2

| melting point | IC50 [1] | IC50 [2] | IC50 [3] | Compound |
| --- | --- | --- | --- | --- |
| 184.1 to 185.9 °C | – | – | – | CC1(C)CC(OC(c2ccccc2)c2ccccc2)CC(C)(C)N1 (as salt: hydrochloric acid salt) [4-Benzhydryloxy-2,2,6,6-tetramethyl-piperidine] |
| – | 400 nM | 60 nM | 26000 nM | CC1(C)CC(OC(c2ccccc2)c2ccccc2)CC(C)(C)N1 [4-Benzhydryloxy-2,2,6,6-tetramethyl-piperidine] |
| – | 38 nM | 590 nM | > 1000 nM | CC1(C)CC(OC(c2ccc(F)cc2)c2ccc(F)cc2)CC(C)(C)N1 [4-[Bis-(4-fluoro-phenyl)-methoxy]-2,2,6,6-tetramethyl-piperidine] |
| 242 to 265 °C | – | – | – | CC1(C)CC(OC(c2ccc(F)cc2)c2ccc(F)cc2)CC(C)(C)N1 (as salt: hydrochloric acid salt) [4-[Bis-(4-fluoro-phenyl)-methoxy]-2,2,6,6-tetramethyl-piperidine] |
